Measured values published in patent publication US20230065158A1, “OXABICYCLOHEPTANES FOR TREATMENT OF SMALL CELL LUNG CANCER” (Lixte Biotechnology, Inc., priority 2021, published 2023).

System: H446 spheroids
Test: H446 spheroids with drugs and T cells, live imaging
Format: cell-based
Details: without T cells, 48 h
Description: FIGS. 7A-7G depict results of T cells infiltration in H446 spheroids in the presence of LB100 and atezolizumab. FIG. 7A: Schematic of the effect of activated T cells on H446 spheroid degradation. At time point 0, single spheroids in 96 well plate were treated with LB-100, atezolizumab and T cells. Beads mimic in vivo T cell activation by two action signals CD3 and CD28. IncuCyte® Live-Cell Analysis System was used for the spheroidal imaging. Right panel presents spheroidal degeneration after 48 h incubation with LB-100, atezolizumab and activated T cells. FIGS. 7B and 7C: Automated image analysis provides metrics (0 h-μm, […]) and spheroid area (yellow-bright field mask). Column bars present mean values of spheroids at 0h. Representative images in bright field mask. […]
Cytotoxic CD8+ cells were isolated from whole blood, buffy coat of healthy donors following the protocol described in the Methods. […] Spheroid survival was monitored for 48 hours and their diameters were measured from phase contrast images. […]
H446 were generated as described in Materials and Methods (Monitoring of spheroid growth and cytotoxicity with the IncuCyte® Live-Cell Analysis System and IncuCyte® Cytotox reagent) following incubation with T cells and drugs. The effect of LB100 and atezolizumab in the presence of T cells was monitored with IncuCyte 3D Multi-Tumor Spheroid assay.

C[NH+]1CCN(C(=O)C2C(C(=O)O)[C@H]3CC[C@@H]2O3)CC1 (stereo in doubt) [LB-100, 3-[(4-Methylpiperazin-1-yl)carbonyl]-7-oxabicyclo[2.2.1]heptane-2-carboxylic acid]
effect on spheroids (degeneration), drug alone: moderate effect
